In patent US7091211B2, “Cyclopentyl modulators of chemokine receptor activity” (Merck & Co., Inc., priority 2003, dated 2006):
Structures can show the parent of a compound that is named as a salt.

Target: T1, CCR3 (Homo sapiens, UniProt P51677)
T1 sequence (P51677 1-355): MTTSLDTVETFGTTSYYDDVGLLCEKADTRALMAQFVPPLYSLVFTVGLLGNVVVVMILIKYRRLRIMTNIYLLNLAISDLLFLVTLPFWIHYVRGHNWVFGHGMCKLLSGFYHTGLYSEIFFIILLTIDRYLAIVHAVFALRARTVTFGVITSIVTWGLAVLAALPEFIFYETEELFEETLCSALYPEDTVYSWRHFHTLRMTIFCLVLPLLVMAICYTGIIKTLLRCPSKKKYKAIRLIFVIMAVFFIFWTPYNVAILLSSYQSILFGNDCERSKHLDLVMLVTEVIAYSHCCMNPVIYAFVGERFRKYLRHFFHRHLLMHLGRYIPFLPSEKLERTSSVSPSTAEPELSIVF
Assay: Assay for determining CCR3 binding activity
Details: assay disclosed in U.S. Pat. No. 6,303,593 or 6,538,002
Text: Cell lines for expressing the receptor of interest include those naturally expressing the receptor, such as […] or THP-1, or a cell engineered to express a recombinant receptor, such as CHO, RBL-2H3, or HEK-293. For example, a CCR3 transfected AML14.3D10 cell line has been placed on restricted deposit with American Type Culture Collection as ATCC No. CRL-12079.
The CCR3 binding activity of representative compounds of the present invention can be determined via the assay disclosed in U.S. Pat. No. 6,303,593 or U.S. Pat. No. 6,538,002.

SMILES	IC50
CCc1nn(CC)c2c1CCC21CCN(C[C@H]2C[C@H](N(C)[C@@H](C(=O)O)C(C)C)C[C@@H]2c2cccc(F)c2)CC1 [Example 1, N-Methyl-N-(1-(R)-3-(S)-((1,3-diethyl-4,5-dihydrospiro[cyclopentapyrazole-6(1H),4′-piperidin-1′-yl])methyl)-4-(S)-(3-fluorophenyl)cyclopent-1-yl)-(R)-valine trihydrochloride salt]	< 10 µM
CCc1c2c(nn1CC)C1(CC2)CCN(C[C@H]2C[C@H](N(C)[C@@H](C(=O)O)C(C)C)C[C@@H]2c2cccc(F)c2)CC1 [Example 2, N-Methyl-N-(1-(R)-3-(S)-((2,3-diethyl-4,5-dihydrospiro[cyclopentapyrazole-6(2H),4′-piperidin-1′-yl])methyl)-4-(S)-(3-fluorophenyl)cyclopent-1-yl)-(R)-valine trihydrochloride salt]	< 10 µM
CCc1nn(C)c2c1CCC21CCN(C[C@H]2C[C@H](N(C)[C@@H](C(=O)O)C(C)C)C[C@@H]2c2cccc(F)c2)CC1 [Example 3, N-Methyl-N-(1-(R)-3-(S)-((3-ethyl-1-methyl-4,5-dihydrospiro[cyclopentapyrazole-6(1H),4′-piperidin-1′-yl])methyl)4-(S)-(3-fluorophenyl)cyclopent-1-yl)-(R)-valine trihydrochloride salt]	< 10 µM
CCn1ncc2c1C1(CC2)CCN(C[C@H]2C[C@H](N(C)[C@@H](C(=O)O)C(C)C)C[C@@H]2c2cccc(F)c2)CC1 [Example 6, N-Methyl-N-(1-(R)-3-(S)-((1-ethyl-4,5-dihydrospiro[cyclopentapyrazole-6(1H),4′-piperidin-1′-yl])methyl)-4-(S)-(3-fluorophenyl)cyclopent-1-yl)-(R)-valine trihydrochloride salt]	< 10 µM
CCc1onc2c1CCC21CCN(C[C@H]2C[C@H](N(C)[C@@H](C(=O)O)C(C)C)C[C@@H]2c2cccc(F)c2)CC1 [Example 12, N-Methyl-N-(1-(R)-3-(S)-((3-ethyl-4,5-dihydrospiro[6H-cyclopent[c]isoxazole-6,4′-piperidin-1′-yl])methyl)-4-(S)-(3-fluorophenyl)cyclopent-1-yl)-(R)-valine trihydrochloride salt]	< 10 µM
CCn1cc2c(n1)CCC21CCN(C[C@H]2C[C@H](N(C)[C@@H](C(=O)O)C(C)C)C[C@@H]2c2cccc(F)c2)CC1 [Example 15, N-Methyl-N-(1-(R)-3-(S)-((2-ethyl-5,6 dihydrospiro[cyclopentapyrazole-4(2H),4′-piperidin-1′-yl])methyl)-4-(S)-(3-fluorophenyl)cyclopent-1-yl)-(R)-valine trihydrochloride salt]	< 10 µM
CCc1nn(CC)c2c1C1(CC2)CCN(C[C@H]2C[C@H](N(C)[C@@H](C(=O)O)C(C)C)C[C@@H]2c2cccc(F)c2)CC1 [Example 16, N-Methyl-N-(1-(R)-3-(S)-((1,3-diethyl-5,6 dihydrospiro[cyclopentapyrazole-4(1H),4′-piperidin-1′-yl])methyl)-4-(S)-(3-fluorophenyl)cyclopent-1-yl)-(R)-valine trihydrochloride salt]	< 10 µM
CCc1nn(CC)c2c1CCC21CCN(C[C@H]2C[C@H](N(CC)[C@@H](C(=O)O)C(C)C)C[C@@H]2c2cccc(F)c2)CC1 [Example 18, N-Ethyl-N-(1-(R)-3-(S)-((1,3-diethyl-4,5-dihydrospiro[cyclopentapyrazole-6(1H),4′-piperidin-1′-yl])methyl)-4-(S)-(3-fluorophenyl)cyclopent-1-yl)-(R)-valine trihydrochloride salt]	< 10 µM
CCc1nn(CC)c2c1CCC21CCN(C[C@H]2C[C@H](N(C)[C@@H](C(=O)O)C(C)(C)C)C[C@@H]2c2cccc(F)c2)CC1 [Example 20, N-Methyl-N-(1-(R)-3-(S)-((1,3-diethyl-4,5-dihydrospiro[cyclopentapyrazole-6(1H),4′-piperidin-1′-yl])methyl)-4-(S)-(3-fluorophenyl)cyclopent-1-yl)-(R)-t-butylglycine trihydrochloride salt]	< 10 µM
CCc1nn(CC)c2c1CCC21CCN(C[C@H]2C[C@H](N(C)[C@@H](C(=O)O)C(C)C)C[C@@H]2c2ccc(F)c(F)c2)CC1 [Example 25, N-Methyl-N-(1-(R)-3-(S)-((1,3-diethyl-4,5-dihydrospiro[cyclopentapyrazole-6(1H),4′-piperidin-1′-yl])methyl)-4-(S)-(3,4-difluorophenyl)cyclopent-1-yl)-(R)-valine trihydrochloride salt]	< 10 µM
CCc1nn(CC)c2c1CCC21CCN(C[C@H]2C[C@H]([C@H](NC(C)(C)CC)C(=O)O)C[C@@H]2c2cccc(F)c2)CC1 [Example 45, 2-(S)-(1-(R)-3-(S)-((1,3-Diethyl-4,5-dihydrospiro[cyclopentapyrazole-6(1H),4′-piperidin-1′-yl])methyl)-4-(S)-(3-fluorophenyl)cyclopent-1-yl)-2-(1,1-dimethylprop-1-ylamino)acetic acid trihydrochloride salt]	< 10 µM
CCc1nn(CC)c2c1CCC21CCN(C[C@H]2C[C@H]([C@@H](C(=O)O)N(C)C(C)(C)CC)C[C@@H]2c2cccc(F)c2)CC1 [Example 46, 2-(S)-(1-(R)-3-(S)-((1,3-Diethyl-4,5-dihydrospiro[cyclopentapyrazole-6(1H),4′-piperidin-1′-yl])methyl)-4-(S)-(3-fluorophenyl)cyclopent-1-yl)-2-((1,1-dimethylprop-1-yl)methylamino)acetic acid trihydrochloride salt]	< 10 µM
